One molecule from the NIST ThermoML archive (doi:10.1016/j.jct.2013.02.013) can be followed below.

Numbers after ± are expanded uncertainties.

Data set [1] can be described thus: Molar enthalpy of transition or fusion. To be noted: Crystal; DSC.
For data set [2] the following is noted: Crystal; DTA.

As for `O=C(O)C=Cc1ccc(O)cc1` [3-(4-hydroxyphenyl)-2-propenoic acid], the “Molar enthalpy of transition or fusion” value in data set [1] was 6.55 ± 0.956 kcal/mol. In addition, the Normal melting temperature in data set [2] was found to be 219.20 ± 1 °C.
